From ChEMBL document CHEMBL1201862, “PubChem BioAssay data set” (2004)
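Where inhibition never reached the appropriate level, the endpoint shown equals the highest concentration tested. Otherwise, values were interpolated linearly from a five-concentration, 48-hour dose response in 96-well plates. GI50 is the concentration that inhibits growth by half.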 Calls of active or inactive are those of the source. No stated cut-off is given here; in the data, active = GI50 up to about 1.1 µM and inactive = higher.

What was measured:
Test in all cases: NCI anticancer screen, dose series, 48 h
786-0 = tested on: 786-0
HCT-116 = tested on: HCT-116
HL-60 = tested on: HL-60
HOP-92 = tested on: HOP-92
HT-29 = tested on: HT-29
IGROV-1 = tested on: IGROV-1
MDA-MB-231 = tested on: MDA-MB-231
MDA-MB-435 = tested on: MDA-MB-435
NCI-H226 = tested on: NCI-H226
NCI/ADR-RES = tested on: NCI/ADR-RES
OVCAR-5 = tested on: OVCAR-5
OVCAR-8 = tested on: OVCAR-8
PC-3 = tested on: PC-3
RXF 393 = tested on: RXF 393
SF-295 = tested on: SF-295
SK-MEL-28 = tested on: SK-MEL-28
SR = tested on: SR
UACC-257 = tested on: UACC-257
COLO 205 = tested on: COLO 205
SNB-75 = tested on: SNB-75

Compound	GI50 (786-0)	GI50 (HCT-116)	GI50 (HL-60)	GI50 (HOP-92)	GI50 (HT-29)	GI50 (IGROV-1)	GI50 (MDA-MB-231)	GI50 (MDA-MB-435)	GI50 (NCI-H226)	GI50 (NCI/ADR-RES)	GI50 (OVCAR-5)	GI50 (OVCAR-8)	GI50 (PC-3)	GI50 (RXF 393)	GI50 (SF-295)	GI50 (SK-MEL-28)	GI50 (SR)	GI50 (UACC-257)	GI50 (COLO 205)	GI50 (SNB-75)
ClC1=C(Cl)C2OC3C=CCC3OC2C(Cl)=C1Cl (centres undefined)	> 100 µM (inactive)	32.9 µM (inactive)	36.1 µM (inactive)	28.8 µM (inactive)	21.3 µM (inactive)	> 100 µM (inactive)	> 100 µM (inactive)	56.9 µM (inactive)	95.3 µM (inactive)	53.6 µM (inactive)	> 100 µM (inactive)	> 100 µM (inactive)	39.7 µM (inactive)	28.4 µM (inactive)	> 100 µM (inactive)	> 100 µM (inactive)	35.3 µM (inactive)	34.5 µM (inactive)	–	–
N#C/C=C(/NC(=O)Nc1ccccc1)N1CCCC1	31.9 µM (inactive)	> 34.8 µM (inactive)	> 100 µM (inactive)	> 48 µM (inactive)	> 72.6 µM (inactive)	> 55.8 µM (inactive)	> 55.8 µM (inactive)	> 68.9 µM (inactive)	> 42 µM (inactive)	> 39.9 µM (inactive)	> 65.6 µM (inactive)	> 32.5 µM (inactive)	> 35.3 µM (inactive)	> 100 µM (inactive)	> 31.5 µM (inactive)	> 47.9 µM (inactive)	> 100 µM (inactive)	45.6 µM (inactive)	> 55 µM (inactive)	–
COc1ccc(C2=CC(c3ccc4c(c3)OCO4)c3c(c4ccccc4oc3=O)O2)cc1OC (centres undefined)	1.13 µM (inactive)	0.824 µM (active)	0.351 µM (active)	–	0.536 µM (active)	0.743 µM (active)	4.02 µM (inactive)	0.366 µM (active)	0.546 µM (active)	1.41 µM (inactive)	4.85 µM (inactive)	3.53 µM (inactive)	2.42 µM (inactive)	0.764 µM (active)	0.374 µM (active)	> 55.2 µM (inactive)	0.486 µM (active)	> 100 µM (inactive)	1.51 µM (inactive)	0.51 µM (active)
CCN1CN(c2ccccc2)C2(CCN(CCCSc3ccc(F)cc3)CC2)C1=O	13.7 µM (inactive)	4.36 µM (inactive)	10.8 µM (inactive)	–	3.36 µM (inactive)	5.3 µM (inactive)	12.7 µM (inactive)	12.8 µM (inactive)	16.8 µM (inactive)	12.2 µM (inactive)	5.19 µM (inactive)	14.8 µM (inactive)	11.8 µM (inactive)	12.9 µM (inactive)	13 µM (inactive)	17.3 µM (inactive)	11.8 µM (inactive)	6.11 µM (inactive)	2.41 µM (inactive)	16.4 µM (inactive)
NC(=O)c1cc2ccccc2o/c1=N/c1ccccc1	> 100 µM (inactive)	> 100 µM (inactive)	> 100 µM (inactive)	> 100 µM (inactive)	> 100 µM (inactive)	> 100 µM (inactive)	> 100 µM (inactive)	> 100 µM (inactive)	> 100 µM (inactive)	> 100 µM (inactive)	> 100 µM (inactive)	> 100 µM (inactive)	> 100 µM (inactive)	> 100 µM (inactive)	–	> 100 µM (inactive)	> 100 µM (inactive)	> 100 µM (inactive)	> 100 µM (inactive)	> 100 µM (inactive)
Nc1nc(SCc2ccccn2)c2ncn(C3CCCC3)c2n1	> 100 µM (inactive)	> 100 µM (inactive)	97.3 µM (inactive)	–	> 100 µM (inactive)	> 100 µM (inactive)	> 100 µM (inactive)	> 100 µM (inactive)	> 100 µM (inactive)	> 100 µM (inactive)	> 100 µM (inactive)	> 100 µM (inactive)	> 100 µM (inactive)	> 100 µM (inactive)	> 100 µM (inactive)	> 100 µM (inactive)	> 100 µM (inactive)	> 100 µM (inactive)	> 100 µM (inactive)	40.5 µM (inactive)
CCC(NC(C)c1ccccc1)C(=O)c1ccc(OCc2ccccc2)c(OCc2ccccc2)c1 (centres undefined)	> 100 µM (inactive)	> 100 µM (inactive)	> 100 µM (inactive)	> 100 µM (inactive)	> 100 µM (inactive)	> 100 µM (inactive)	> 100 µM (inactive)	> 100 µM (inactive)	> 100 µM (inactive)	> 100 µM (inactive)	> 100 µM (inactive)	> 100 µM (inactive)	> 100 µM (inactive)	> 100 µM (inactive)	> 100 µM (inactive)	> 100 µM (inactive)	> 100 µM (inactive)	–	> 100 µM (inactive)	> 100 µM (inactive)
O=C(O)CN(CC(=O)O)Cc1cc2c(cc1O)Oc1cc(O)c(CN(CC(=O)O)CC(=O)O)cc1C21OC(=O)c2ccccc21 [OFTASCEINE]	> 100 µM (inactive)	> 100 µM (inactive)	> 100 µM (inactive)	> 100 µM (inactive)	> 100 µM (inactive)	> 100 µM (inactive)	> 100 µM (inactive)	> 100 µM (inactive)	> 100 µM (inactive)	> 100 µM (inactive)	> 100 µM (inactive)	> 100 µM (inactive)	> 100 µM (inactive)	–	> 100 µM (inactive)	> 100 µM (inactive)	> 100 µM (inactive)	> 100 µM (inactive)	> 100 µM (inactive)	> 100 µM (inactive)
Nc1nncc2[nH]nnc12	> 100 µM (inactive)	> 100 µM (inactive)	12.8 µM (inactive)	–	> 100 µM (inactive)	> 100 µM (inactive)	> 100 µM (inactive)	> 100 µM (inactive)	> 100 µM (inactive)	> 100 µM (inactive)	> 100 µM (inactive)	> 100 µM (inactive)	> 100 µM (inactive)	> 100 µM (inactive)	> 100 µM (inactive)	> 100 µM (inactive)	22.9 µM (inactive)	> 100 µM (inactive)	> 100 µM (inactive)	> 100 µM (inactive)
O[C@H]1[C@H](O)[C@@H](O)[C@H](O)[C@@H](O)[C@H]1O [INOSITOL]	> 1000 µM (inactive)	> 1000 µM (inactive)	–	> 1000 µM (inactive)	> 1000 µM (inactive)	> 1000 µM (inactive)	> 1000 µM (inactive)	> 1000 µM (inactive)	> 1000 µM (inactive)	> 1000 µM (inactive)	> 1000 µM (inactive)	> 1000 µM (inactive)	> 1000 µM (inactive)	> 1000 µM (inactive)	–	> 1000 µM (inactive)	56.6 µM (inactive)	> 1000 µM (inactive)	> 1000 µM (inactive)	0.1 µM (active)
O=C(/C=C/c1ccc(Oc2cc(C(=O)/C=C/c3ccc(O)cc3)c(O)cc2O)cc1)c1ccc(O)cc1O [RHUSCHALCONE II]	3.59 µM (inactive)	2.25 µM (inactive)	4.14 µM (inactive)	16.5 µM (inactive)	1.92 µM (inactive)	3.38 µM (inactive)	5.08 µM (inactive)	4.15 µM (inactive)	–	3.85 µM (inactive)	5.27 µM (inactive)	2.64 µM (inactive)	5.27 µM (inactive)	4.97 µM (inactive)	5.96 µM (inactive)	2.52 µM (inactive)	3.35 µM (inactive)	12.7 µM (inactive)	2.61 µM (inactive)	4.63 µM (inactive)
Cc1ccc(N2C3=C(CC4=C2CC(C)(C)CC4=O)C(=O)CC(C)(C)C3)cc1	> 100 µM (inactive)	> 100 µM (inactive)	> 100 µM (inactive)	–	> 100 µM (inactive)	> 100 µM (inactive)	> 100 µM (inactive)	> 100 µM (inactive)	> 100 µM (inactive)	> 100 µM (inactive)	> 100 µM (inactive)	> 100 µM (inactive)	> 100 µM (inactive)	> 100 µM (inactive)	> 100 µM (inactive)	> 100 µM (inactive)	> 100 µM (inactive)	> 100 µM (inactive)	> 100 µM (inactive)	27.6 µM (inactive)
Nc1ccc2c(c1)Nc1c3ccccc3nc3cccc-2c13	1.21 µM (inactive)	1.48 µM (inactive)	3.66 µM (inactive)	1.6 µM (inactive)	1.18 µM (inactive)	1.25 µM (inactive)	1.35 µM (inactive)	1.81 µM (inactive)	1.62 µM (inactive)	1.66 µM (inactive)	1.77 µM (inactive)	–	1.54 µM (inactive)	1.64 µM (inactive)	1.29 µM (inactive)	1.99 µM (inactive)	0.281 µM (active)	2 µM (inactive)	1.34 µM (inactive)	1.4 µM (inactive)
OC[C@H]1O[C@@H](Oc2cc(O)cc(/C=C/c3ccc(O)cc3)c2)[C@H](O)[C@@H](O)[C@@H]1O [PICEID]	> 100 µM (inactive)	> 100 µM (inactive)	> 100 µM (inactive)	> 100 µM (inactive)	> 100 µM (inactive)	> 100 µM (inactive)	> 100 µM (inactive)	> 100 µM (inactive)	> 100 µM (inactive)	> 100 µM (inactive)	> 100 µM (inactive)	> 100 µM (inactive)	> 100 µM (inactive)	> 100 µM (inactive)	> 100 µM (inactive)	> 100 µM (inactive)	> 100 µM (inactive)	> 100 µM (inactive)	–	> 100 µM (inactive)
